Where a name gives a salt, the structure may show the parent alone.
Tests used:
c-Cbl = c-Cbl (Homo sapiens (Human), UniProt P22681); test: C-Cbl LCK Ub TR-FRET assay (c-cbl Lck HTRF); format: biochemical; conditions: for (fold-selectivity): C-cbl Lck HTRF IC50 relative to Cbl-b Lck HTRF IC50
Summary of the method: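 Signal is read once the detection mix has stood 20 min at ambient temperature. Curves are anchored by DMSO as maximum and by omission of LCK as minimum.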

Cbl-b = Cbl-b (Homo sapiens (Human), UniProt Q13191); test: Cbl-b LCK Ub TR-FRET assay (Cbl-b Lck HTRF); format: biochemical
Summary of the method: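 TR-FRET (340 nm excitation, 615/665 nm emission) read after adding HA-ubiquitin–UBE2D2 thioester, anti-HA-D2 and streptavidin-Eu. Beforehand, compounds incubated 60 min with biotinylated Cbl-b, then 90 min with His-LCK and ATP (1 mM in 2× mix); IC50 from 10 concentrations, DMSO high and no-LCK low controls.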

Cbl-b, sequence (Q13191 40-426): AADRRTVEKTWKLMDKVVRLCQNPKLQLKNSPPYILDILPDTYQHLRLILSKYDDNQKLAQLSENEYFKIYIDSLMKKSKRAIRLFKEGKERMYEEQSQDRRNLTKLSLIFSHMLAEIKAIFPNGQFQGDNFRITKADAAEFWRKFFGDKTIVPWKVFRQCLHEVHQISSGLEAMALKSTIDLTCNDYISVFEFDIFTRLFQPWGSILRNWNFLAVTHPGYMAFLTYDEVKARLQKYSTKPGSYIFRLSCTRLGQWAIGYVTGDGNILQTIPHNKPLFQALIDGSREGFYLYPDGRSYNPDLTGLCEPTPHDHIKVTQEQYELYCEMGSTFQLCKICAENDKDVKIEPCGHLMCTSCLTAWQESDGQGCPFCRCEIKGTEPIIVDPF
c-Cbl, sequence (P22681 47-435): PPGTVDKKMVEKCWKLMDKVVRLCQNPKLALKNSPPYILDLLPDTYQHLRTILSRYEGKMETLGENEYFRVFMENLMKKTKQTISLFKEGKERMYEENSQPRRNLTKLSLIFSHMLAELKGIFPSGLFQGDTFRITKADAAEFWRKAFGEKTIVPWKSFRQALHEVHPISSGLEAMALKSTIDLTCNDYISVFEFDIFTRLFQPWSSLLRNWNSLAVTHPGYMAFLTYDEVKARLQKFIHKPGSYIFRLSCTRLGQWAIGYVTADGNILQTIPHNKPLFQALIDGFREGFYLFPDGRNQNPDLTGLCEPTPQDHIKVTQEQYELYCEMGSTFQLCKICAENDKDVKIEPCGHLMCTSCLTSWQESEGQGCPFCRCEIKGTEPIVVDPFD

Cn1cnnc1CC1(c2cccc(N3Cc4c(cc(CN5CCC[C@@](C)(O)C5)cc4C(F)(F)F)C3=O)c2)CC(F)(F)C1 [Compound 441, (R)-2-(3-(3,3-difluoro-1-((4-methyl-4H-1,2,4-triazol-3-yl)methyl)cyclobutyl)phenyl)-6-((3-hydroxy-3-methylpiperidin-1-yl)methyl)-4-(trifluoromethyl)isoindolin-1-one]
IC50 (c-Cbl): 0.023 µM
(fold-selectivity) (c-Cbl): (0.56x)
IC50 (Cbl-b): 0.042 µM

Cn1cnnc1[C@H](F)C1(c2cccc(N3Cc4c(cc(CN5CC(C(F)F)C5)cc4C(F)(F)F)C3=O)c2)COC1 [Compound 137, (R)-6-((3-(difluoromethyl)azetidin-1-yl)methyl)-2-(3-(3-(fluoro(4-methyl-4H-1,2,4-triazol-3-yl)methyl)oxetan-3-yl)phenyl)-4-(trifluoromethyl)isoindolin-1-one]
IC50 (c-Cbl): 0.057 µM
(fold-selectivity) (c-Cbl): 1.9x
IC50 (Cbl-b): 0.029 µM

COC[C@@H]1CCCN1Cc1cc2c(c(C(F)(F)F)c1)CN(c1cccc(C3([C@H](F)c4nncn4C)COC3)c1)C2=O [Compound 160, 2-(3-(3-((S)-fluoro(4-methyl-4H-1,2,4-triazol-3-yl)methyl)oxetan-3-yl)phenyl)-6-(((S)-2-(methoxymethyl)pyrrolidin-1-yl)methyl)-4-(trifluoromethyl)isoindolin-1-one]
IC50 (c-Cbl): 2.3 µM
(fold-selectivity) (c-Cbl): 1.7x
IC50 (Cbl-b): 1.4 µM

Cn1cnnc1[C@@H](F)[C@@](C)(F)c1cccc(N2Cc3c(cc(CN4CC(C)(F)C4)cc3C(F)(F)F)C2=O)c1 [Compound 32, 2-(3-((1 R,2S)-1,2-difluoro-1-(4-methyl-4H-1,2,4-triazol-3-yl)propan-2-yl)phenyl)-6-((3-fluoro-3-methylazetidin-1-yl)methyl)-4-(trifluoromethyl)isoindolin-1-one]
IC50 (c-Cbl): 11 µM
(fold-selectivity) (c-Cbl): 2.5x
IC50 (Cbl-b): 4.5 µM

CC[C@@H]1CC[C@H](c2cc3c(c(C(F)(F)F)c2)CN(c2cccc(C4(Cc5nncn5C)CC(F)(F)C4)c2)C3=O)N1 [Compound 476, 2-(3-(3,3-difluoro-1-((4-methyl-4H-1,2,4-triazol-3-yl)methyl)cyclobutyl)phenyl)-6-((2R,5R)-5-ethylpyrrolidin-2-yl)-4-(trifluoromethyl)isoindolin-1-one]
IC50 (c-Cbl): 0.039 µM
(fold-selectivity) (c-Cbl): (0.83x)
IC50 (Cbl-b): 0.047 µM

CC(C)[C@H]1CN(C)CCN1Cc1cc2c(c(C(F)(F)F)c1)CN(c1cccc(C3(C(F)(F)c4nncn4C)CC(F)(F)C3)c1)C2=O [Compound 432, (S)-2-(3-(1-(difluoro(4-methyl-4H-1,2,4-triazol-3-yl)methyl)-3,3-difluorocyclobutyl)phenyl)-6-((2-isopropyl-4-methylpiperazin-1-yl)methyl)-4-(trifluoromethyl)isoindolin-1-one]
IC50 (c-Cbl): 0.013 µM
(fold-selectivity) (c-Cbl): (0.78x)
IC50 (Cbl-b): 0.017 µM

Cn1cnnc1CC1(c2cccc(N3Cc4c(cc([C@H](N)C5CC5)cc4C(F)(F)F)C3=O)c2)CC(F)(F)C1 [Compound 435, (R)-6-(amino(cyclopropyl)methyl)-2-(3-(3,3-difluoro-1-((4-methyl-4H-1,2,4-triazol-3-yl)methyl)cyclobutyl)phenyl)-4-(trifluoromethyl)isoindolin-1-one]
IC50 (c-Cbl): 0.019 µM
(fold-selectivity) (c-Cbl): (1.0x)
IC50 (Cbl-b): 0.019 µM

Cn1cnnc1CC1(c2cc(NC3CCCC3O)nc(N3Cc4c(cccc4C(F)(F)F)C3=O)c2)COC1 (centres unmarked) [Compound 489, 2-(6-((2-hydroxycyclopentyl)amino)-4-(3-((4-methyl-4H-1,2,4-triazol-3-yl)methyl)oxetan-3-yl)pyridin-2-yl)-4-(trifluoromethyl)isoindolin-1-one]
IC50 (c-Cbl): 19.5 µM
(fold-selectivity) (c-Cbl): (3.8x)
IC50 (Cbl-b): 5 µM

C[C@H]1CN(Cc2cc3c(c(C(F)(F)F)c2)CN(c2cccc(C4([C@@H](F)c5nncn5C)COC4)c2)C3=O)CCCO1 [Compound 118, 2-(3-(3-((R)-fluoro(4-methyl-4H-1,2,4-triazol-3-yl)methyl)oxetan-3-yl)phenyl)-6-(((S)-2-methyl-1,4-oxazepan-4-yl)methyl)-4-(trifluoromethyl)isoindolin-1-one]
IC50 (c-Cbl): 0.008 µM
(fold-selectivity) (c-Cbl): 1.1x
IC50 (Cbl-b): 0.007 µM

CC[C@H]1CN(C)CCN1Cc1cc2c(c(C(F)(F)F)c1)CN(c1cccc(C3(Cc4nncn4C)CC(F)(F)C3)c1)C2=O [Compound 434, (S)-2-(3-(3,3-difluoro-1-((4-methyl-4H-1,2,4-triazol-3-yl)methyl)cyclobutyl)phenyl)-6-((2-ethyl-4-methylpiperazin-1-yl)methyl)-4-(trifluoromethyl)isoindolin-1-one]
IC50 (c-Cbl): 0.017 µM
(fold-selectivity) (c-Cbl): (0.95x)
IC50 (Cbl-b): 0.018 µM

C[C@H](N)c1cc2c(c(C(F)(F)F)c1)CN(c1cccc(C3([C@@H](F)c4nncn4C)COC3)c1)C2=O [Compound 192, 6-((S)-1-aminoethyl)-2-(3-(3-((R)-fluoro(4-methyl-4H-1,2,4-triazol-3-yl)methyl)oxetan-3-yl)phenyl)-4-(trifluoromethyl)isoindolin-1-one]
IC50 (c-Cbl): 0.053 µM
(fold-selectivity) (c-Cbl): 1.6x
IC50 (Cbl-b): 0.032 µM

Cn1cnnc1[C@@H](F)C1(c2cccc(N3Cc4c(cc(CN5CC6CC6C5)cc4C(F)(F)F)C3=O)c2)COC1 (stereo partly drawn) [Compound 85, 6-((3-azabicyclo[3.1.0]hexan-3 yl)methyl)-2-(3-(3-((S)-fluoro(4-methyl-4H-1,2,4-triazol-3-yl)methyl)oxetan-3-yl)phenyl)-4-(trifluoromethyl)isoindolin-1-one]
IC50 (c-Cbl): 0.37 µM
(fold-selectivity) (c-Cbl): 2.0x
IC50 (Cbl-b): 0.18 µM

Cn1cnnc1CC1(c2cccc(N3Cc4c(cc(CN5Cc6c[nH]nc6C5)cc4C(F)(F)F)C3=O)c2)CC(F)(F)C1 [Compound 105, 2-(3-(3,3-difluoro-1-((4-methyl-4H-1,2,4-triazol-3-yl)methyl)cyclobutyl)phenyl)-6-((2,6-dihydropyrrolo[3,4-c]pyrazol-5(4H)-yl)methyl)-4-(trifluoromethyl)isoindolin-1-one]
IC50 (c-Cbl): 0.025 µM
(fold-selectivity) (c-Cbl): 0.93x
IC50 (Cbl-b): 0.026 µM

Cn1cnnc1CC1(c2cccc(N3Cc4c(cc(CNCC(C)(C)C)cc4C(F)(F)F)C3=O)c2)CC(F)(F)C1 [Compound 363, 2-(3-(3,3-difluoro-1-((4-methyl-4H-1,2,4-triazol-3-yl)methyl)cyclobutyl)phenyl)-6-((neopentylamino)methyl)-4-(trifluoromethyl)isoindolin-1-one]
IC50 (c-Cbl): 0.0096 µM
(fold-selectivity) (c-Cbl): (0.75x)
IC50 (Cbl-b): 0.013 µM

Cn1cnnc1CC1(c2cc(NCC(N)=O)nc(N3Cc4c(cccc4C(F)(F)F)C3=O)c2)COC1 [Compound 491, 2-((4-(3-((4-methyl-4H-1,2,4-triazol-3-yl)methyl)oxetan-3-yl)-6-(1-oxo-4-(trifluoromethyl)isoindolin-2-yl)pyridin-2-yl)amino)acetamide]
IC50 (c-Cbl): 20 µM
(fold-selectivity) (c-Cbl): (2.3x)
IC50 (Cbl-b): 8.6 µM

Cn1cnnc1[C@@H](F)C1(c2cccc(N3Cc4c(cc(CN)cc4C(F)(F)F)C3=O)c2)COC1 [Compound 69, (S)-6-(aminomethyl)-2-(3-(3-(fluoro(4-methyl-4H-1,2,4-triazol-3-yl)methyl)oxetan-3-yl)phenyl)-4-(trifluoromethyl)isoindolin-1-one]
IC50 (c-Cbl): 0.34 µM
(fold-selectivity) (c-Cbl): 1.6x
IC50 (Cbl-b): 0.21 µM

CN1CCN(Cc2cc3c(c(C(F)(F)F)c2)CN(c2cccc(C4(Cc5nncn5C)CC(F)(F)C4)c2)C3=O)CC1 [Compound 411, 2-(3-(3,3-difluoro-1-((4-methyl-4H-1,2,4-triazol-3-yl)methyl)cyclobutyl)phenyl)-6-((4-methylpiperazin-1-yl)methyl)-4-(trifluoromethyl)isoindolin-1-one]
IC50 (c-Cbl): 0.043 µM
(fold-selectivity) (c-Cbl): (0.88x)
IC50 (Cbl-b): 0.048 µM

CC(C)[C@H]1CN(C)CCN1Cc1cc2c(c(C(F)(F)F)c1)CN(c1cc(C3([C@H](F)c4nncn4C)CCC3)cc(NCC3CC3)n1)C2=O [Compound 279, 2-(6-((cyclopropylmethyl)amino)-4-(1-((S)-fluoro(4-methyl-4H-1,2,4-triazol-3-yl)methyl)cyclobutyl)pyridin-2-yl)-6-(((S)-2-isopropyl-4-methylpiperazin-1-yl)methyl)-4-(trifluoromethyl)isoindolin-1-one]
IC50 (c-Cbl): 0.01 µM
(fold-selectivity) (c-Cbl): (1.4x)
IC50 (Cbl-b): 0.0079 µM

CCNC(=O)CNc1cc(C2(Cc3nncn3C)CCC2)cc(N2Cc3c(cc(CNC4(C)CCC4)cc3C(F)(F)F)C2=O)n1 [Compound 307, N-ethyl-2-((4-(1-((4-methyl-4H-1,2,4-triazol-3-yl)methyl)cyclobutyl)-6-(6-(((1-methylcyclobutyl)amino)methyl)-1-oxo-4-(trifluoromethyl)isoindolin-2-yl)pyridin-2-yl)amino)acetamide formate]
IC50 (c-Cbl): 0.31 µM
IC50 (Cbl-b): 0.18 µM

Cn1cnnc1CC1(c2cc(NCCc3ccncc3)nc(N3Cc4c(cc(CNC5(C)CCC5)cc4C(F)(F)F)C3=O)c2)CCC1 [Compound 321, 2-(4-(1-((4-methyl-4H-1,2,4-triazol-3-yl)methyl)cyclobutyl)-6-((2-(pyridin-4-yl)ethyl)amino)pyridin-2-yl)-6-(((1-methylcyclobutyl)amino)methyl)-4-(trifluoromethyl)isoindolin-1-one]
IC50 (c-Cbl): 0.023 µM
(fold-selectivity) (c-Cbl): (1.3x)
IC50 (Cbl-b): 0.018 µM

CCC1(O)CN(Cc2cc3c(c(C(F)(F)F)c2)CN(c2cccc(C4([C@@H](F)c5nncn5C)COC4)c2)C3=O)C1 [Compound 167, (R)-6-((3-ethyl-3-hydroxyazetidin-1-yl)methyl)-2-(3-(3-(fluoro(4-methyl-4H-1,2,4-triazol-3-yl)methyl)oxetan-3-yl)phenyl)-4-(trifluoromethyl)isoindolin-1-one]
IC50 (c-Cbl): 0.15 µM
(fold-selectivity) (c-Cbl): 2.5x
IC50 (Cbl-b): 0.059 µM

Reference: patent publication US20250230147A1, “LACTAMS AS CBL-B INHIBITORS” (Genentech, Inc., priority 2021, published 2025)
